Measured values from patent US7910568B2, “Derivatives of 4- or 5-aminosalicylic acid” (Antibe Therapeutics Inc., priority 2005, dated 2011).

Columns and labels:
TNBS-induced colitis = TNBS-induced colitis in mice, disease activity score; format: in vivo
Protocol: A standard experimental animal model of colitis induced by intracolonic administration of 2,4,6-trinitrobenzene sulfonic acid (TNBS) to mice is used in the following example. A detailed description of this model has been published (Santucci et al. (2003) Gastroenterology 124:1381-94) and is incorporated herein by reference. Briefly, 6-8 week old Balb/c mice were given TNBS intracolonically at a dose of 1.5 mg in 0.1 mL of 30% ethanol. The mice were randomized to the various treatment groups (n=6 per group). Beginning one hour later and continuing every 12 h for 5 days, the mice were treated orally with vehicle (1% carboxymethylcellulose (CMC)), 5-ASA (mesalamine) (25, 50 or 75 mg/kg) or with equimolar doses of 2-hydroxy-5-amino-benzoic acid 4-(thioxo-5H-[1,2]dithiol-3-yl)-phenyl ester hydrochloride (Compound XXXV) (130 mg/kg), or with […] (100 mg/kg), 50% (66 mg/kg) and 25% (33 mg/kg) of that dose. The mice were evaluated (blindly) on the final day of the study for the presence of diarrhea and fecal occult blood, and their body weights were measured. […] After sacrifice, a sample of the colon was excised for measurement of myeloperoxidase (MPO) activity, as a marker of granulocyte infiltration. All results were compared to those obtained with healthy mice as well.

[1] = test system: TNF-α, IFN-γ, IL-1, IL-2, IL-12 p40, RANTES mRNA; assay: TNBS-induced colitis in mice, colonic mRNA of pro-inflammatory cytokines and chemokines by RT-PCR; format: in vivo; details: dose equimolar to 50 mg/kg mesalamine; normalized to GAPDH, ratio to healthy controls
Protocol: The same model was used as described above. In this example, the effects of mesalamine (50 mg/kg) were compared to those of equimolar doses of Compound XXXV. In addition to measuring the severity of colitis by measuring disease activity score and MPO activity, tissues were processed for measurement of a number of genes for inflammatory cytokines and other mediators.
In particular, mRNA expression in mice of tumour necrosis factor-alpha (TNF-α), interferon gamma (IFN-γ), colonic interleukin (IL)-1, IL-2, IL-10, IL-12 p40, RANTES, cyclooxygenase (COX)-1, COX-2, constitutive endothelial nitric oxide synthase (eNOS), and inducible NOS (iNOS) was measured as described in Wallace et al. (1999) Gastroenterology 117: 557-566, incorporated herein by reference.
Briefly, reverse transcription-polymerase chain reaction (RT-PCR) was used to detect and quantify mRNA of the particular cytokine/chemokine/enzyme. Glyceraldehyde-3-phosphate dehydrogenase (GAPDH) was used as the “housekeeping gene” for mRNA expression (i.e., as an internal control). For each sample, the ratio of the amplification of the target gene to the amplification of GAPDH (expression of each is measured by performing densitometry on gels) was obtained. […]

colonic smooth muscle = assay: Rat colorectal distension, intrarectal pressure / compliance of the colo-rectum; format: in vivo; details: 100 mg/kg i.p.; FIG. 16(b)
Description: In the testing day, rats were sedated with ether inhalation and a 2 cm long latex balloon was inserted intrarectally 2 cm from the anal verge and fixed at the base of the tail. The balloon was connected via a double-barreled cannula to a pressure transducer to continuously monitoring the rectal pressure by a computer (PowerLab PC, A.D. Instruments, Milford, Mass., USA) and to a syringe for inflation/deflation of the balloon. The rats were then housed in a small cage (20×8×8 cm) on an elevated Plexiglas™ platform and allowed to wake up and adapt for 1 hour. After recovery from sedation, animals underwent the CRD procedure and behavioral responses were tested. The night before the experiments, the balloons were inflated and left overnight so the latex stretched and the balloons became compliant. CRD of 20 seconds, performed every 5 minutes, was applied in increment of 0.4 ml starting from 0.4 ml up to 1.6 ml water. […] Behavioral responses during the first and the second set of CRD were assessed and compared. To determine the effect of mesalamine or Compound XXXV on colonic smooth muscle, the compliance of the colo-rectum during CRD was obtained from intracolo-rectal volume and pressure and expressed as mL/mmHg. […]

[2] = test system: leukocyte adherence to the vascular endothelium; assay: Aspirin-induced leukocyte adherence to the vascular endothelium, intravital microscopy of mesenteric venules; format: in vivo, rat
Protocol: Leukocyte adherence was studied using intravital microscopy, as described in detail previously (Wallace et al., (1993) Am. J. Physiol. 265: 993-998, incorporated hereto by reference). Rats were anesthetized with pentobarbital sodium (60 mg/kg i.p.) and cautery incisions were made along the abdominal region. A tracheotomy was performed to facilitate breathing. The rats were placed in a supine position, and a segment of the mesentery was exteriorized through the abdominal incision. The mesentery was carefully placed over an optically clear viewing pedestal that allowed for trans-illumination of a 2-cm^2 segment of tissue. All exposed tissue was covered with saline-soaked gauze to minimize dehydration. The temperature of the pedestal was kept at 37° C. and the mesentery was superfused with warmed bicarbonate-buffered saline (pH 7.4). An intravital microscope (Nikon L25/0.35) and a ×10 eyepiece were used to observe the mesenteric microcirculation. Post-capillary venules with diameters ranging from 20 to 40 μm were selected for the study. A video camera mounted on the microscope (Panasonic™ digital 5000) projected the image onto a monitor, and the images were recorded for playback analysis using a videocassette recorder. Images of the mesenteric microcirculation were recorded 5 minutes prior to aspirin administration (baseline), at the time of aspirin administration (time 0-5) and every 15 minutes for 60 minutes. Leukocyte adherence was blindly quantified from videotaped images of the vessels made over 5-min periods as the number of leukocytes that remained stationary along the vessel wall for 30 s or more (expressed per 100 μm venule length). Groups of rats (at least 5 in each) were pretreated with Compound XXXV (130 mg/kg), Compound XXVII (100 mg/kg), mesalamine (50 mg/kg), or vehicle 60 min prior to aspirin (or vehicle) administration. These drugs were given intragastrically. In some experiments, rats were treated with glibenclamide (10 mg/kg i.p.) or vehicle 30 min prior to administration of these compounds.

SMILES: Nc1ccc(O)c(C(=O)Oc2ccc(-c3cc(=S)ss3)cc2)c1 [Compound XXXV, 5-Amino-2-hydroxy-benzoic acid 4-(5-thioxo-5H-[1,2]dithiol-3-yl)-phenyl ester]
- Disease Activity Index (TNBS-induced colitis; Compound XXXV 130 mg/kg vs mesalamine 50 mg/kg, ADT-OH 80 mg/kg and their mixture, FIG. 3): almost twice as effective as either mesalamine alone, ADT-OH alone or a mixture of mesalamine and ADT-OH
- Every endpoint of FIGS. 7-14 (MPO activity, disease activity score, colonic mRNA expression) (TNBS-induced colitis; dose equimolar to 50 mg/kg mesalamine): superior to mesalamine in every endpoint
- Disease activity score (TNBS-induced colitis; dose-ranging, oral every 12 h for 5 days, equimolar doses of 50 mg/kg and 75 mg/kg mesalamine, FIG. 1): superior to mesalamine in reducing the activity score
- Expression of mRNA for pro-inflammatory cytokines and chemokines [1]: suppressed expression of mRNA for several pro-inflammatory cytokines and chemokines
- Intrarectal pressure (colonic smooth muscle): successfully reduced intrarectal pressure
- Aspirin-induced leukocyte adherence after glibenclamide pretreatment ([2]; glibenclamide 10 mg/kg i.p. 30 min prior to the compound, FIG. 19): reversed the inhibitory effect
- Aspirin-induced leukocyte adherence ([2]; intragastric pretreatment 60 min prior to aspirin (XXXV 130 mg/kg, mesalamine 50 mg/kg), glibenclamide 10 mg/kg i.p., FIG. 19): prevented the aspirin-induced increase in leukocyte adherence
- Aspirin-induced leukocyte adherence, final time period ([2]; minutes 60-65, XXXV 130 mg/kg, XXVII 100 mg/kg intragastric, FIG. 20): suppress aspirin-induced leukocyte adherence
- Aspirin-induced leukocyte adherence, final time period, after glibenclamide pretreatment ([2]; minutes 60-65, glibenclamide 10 mg/kg i.p., FIG. 20): reverse this inhibitor effect
